# Legend:
# [1] = target: T1, mouse RORγ (Mus musculus, UniProt P51450); experiment: Luciferase reporter gene assay of inhibitory effect against RORγ transcriptional activity (GAL4-mRORγ plasmid in CHO cells); assay type: cell-based; details: read-out: LUC EC50 (μM) mRORg
# T1 construct: mouse, NM_011281.2 and from Ile251 to Lys516; expressed in transfected cells; host or cells: CHO cells (transient co-transfection with pG5-Luc reporter)
# T1 sequence (P51450 251-516): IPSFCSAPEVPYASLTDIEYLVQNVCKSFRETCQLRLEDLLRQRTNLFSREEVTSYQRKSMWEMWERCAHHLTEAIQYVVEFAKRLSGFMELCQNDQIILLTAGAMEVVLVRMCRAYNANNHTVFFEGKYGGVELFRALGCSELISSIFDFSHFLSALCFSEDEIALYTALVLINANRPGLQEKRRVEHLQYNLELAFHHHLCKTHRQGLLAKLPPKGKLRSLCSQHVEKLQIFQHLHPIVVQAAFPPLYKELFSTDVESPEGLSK
# Procedure, shortened: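 CHO cells transiently co-transfected with GAL4-mouse RORγ LBD (Ile251–Lys516) and GAL4-dependent luciferase reporter; eight compound concentrations, 0.1% DMSO, 2 days at 37 °C. Luminescence as %-of-vehicle control; EC50 by curve fit, cytotoxic concentrations excluded.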
# [2] = target: T2, human RORγ (Homo sapiens, UniProt P51449); experiment: Luciferase reporter gene assay of inhibitory effect against RORγ transcriptional activity (GAL4-hRORγ plasmid in CHO cells); assay type: cell-based; details: read-out: LUC EC50 (μM) hRORg
# T2 construct: human, NM_005060.3 and from Ser253 to Lys518; expressed in transfected cells; host or cells: CHO cells (transient co-transfection with pG5-Luc reporter)
# T2 sequence (P51449 253-518): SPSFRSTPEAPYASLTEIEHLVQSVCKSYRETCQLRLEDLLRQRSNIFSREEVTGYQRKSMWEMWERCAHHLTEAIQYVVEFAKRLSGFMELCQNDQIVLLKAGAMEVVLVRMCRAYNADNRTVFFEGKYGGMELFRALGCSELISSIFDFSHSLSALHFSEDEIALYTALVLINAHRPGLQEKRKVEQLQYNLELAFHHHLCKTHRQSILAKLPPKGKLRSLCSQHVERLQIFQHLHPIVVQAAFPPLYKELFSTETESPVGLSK
Compound,EC50 [1],EC50 [2]
Cc1c(Cl)cccc1NC(=O)CCc1nnc(C2CN(C(=O)C(C)C)C2)n1C1CC1 [Example F-259],> 3 µM,> 3 µM
Cc1c(Cl)cccc1NC(=O)CCc1nnc(C2CN(CC(C)C)C2)n1C1CC1 [Example F-260],> 3 µM,> 3 µM
Cc1c(Cl)cccc1NC(=O)CCc1nnc(CCN2CCC(F)(F)CC2)n1C1CC1 [Example F-261],< 3 µM,> 3 µM
COc1c(CNC(=O)CCc2nnc(CCC(C)C)n2C2CC2)ccc(C)c1C [Example F-262],> 3 µM,> 3 µM
COc1cc(C(F)(F)F)ccc1CNC(=O)CCc1nnc(CCC(C)C)n1C1CC1 [Example F-263],< 3 µM,< 3 µM
Cc1c(Cl)cccc1NC(=O)CCc1nnc(CC(=O)O)n1C1CC1 [Example F-264],> 3 µM,> 3 µM
COc1cc(C)ccc1CNC(=O)[C@H]1CCCN(C)[C@@H]1c1nnc(CCC2CCCCC2)n1C1CC1 [Example F-267],< 3 µM,< 3 µM
Cc1ccc(NC(=O)CCc2nnc(CCC3(C)CCCCC3)n2C2CC2)c(C)c1 [Example F-269],< 3 µM,< 3 µM
COc1cc(C)ccc1CNC(=O)CCc1nnc(CCC2(C)CCCCC2)n1C1CC1 [Example F-270],< 3 µM,< 3 µM
Cc1c(Cl)cccc1NC(=O)CCc1nnc([C@H]2CC[C@H](C(C)C)CC2)n1C1CC1 [Example F-280],< 3 µM,< 3 µM
CC(=O)N[C@@H](CC(=O)Nc1ccc(C)cc1C)c1nnc(CCCC(C)C)n1C1CC1 [Example F-291],< 3 µM,< 3 µM
Cc1c(Cl)cccc1NC(=O)CCc1nnc(CCN(C)C(C)(C)C)n1C1CC1 [Example F-294],> 3 µM,> 3 µM
Cc1ccc(NC(=O)[C@H]2CCCN(C)[C@@H]2c2nnc(CCC3CCCCC3)n2C2CC2)c(C)c1 [Example F-295],< 3 µM,< 3 µM
CC(=O)N1CC[C@H](C(=O)Nc2ccc(C)cc2C)[C@H]1c1nnc(CCCC(C)(C)C)n1C1CC1 [Example F-296],< 3 µM,< 3 µM
COc1cc(C)ccc1CNC(=O)[C@H]1CCN(C(C)=O)[C@@H]1c1nnc(CCCC(C)(C)C)n1C1CC1 [Example F-297],< 3 µM,< 3 µM
CC(=O)N1C[C@H](C(=O)Nc2ccc(C)cc2C)[C@@H](c2nnc(C3CC(C(C)C)C3)n2C2CC2)C1 (stereo partly shown) [Example F-298],< 3 µM,< 3 µM
Cc1ccc(NC(=O)[C@H]2C(=O)N(C)C[C@@H]2c2nnc(CCCC(C)(C)C)n2C2CC2)c(C)c1 [Example F-302],< 3 µM,< 3 µM
Cc1ccc(NC(=O)[C@H]2CN(C)C(=O)[C@@H]2c2nnc(CCCC(C)(C)C)n2C2CC2)c(C)c1 [Example F-303],< 3 µM,< 3 µM
Cc1c(Cl)cccc1NC(=O)CCc1nnc(CCOC(C)(C)C(F)(F)F)n1C1CC1 [Example F-304],< 3 µM,< 3 µM
Cc1ccc(NC(=O)CCc2nnc(CCCC(C)(C)C)n2C2CC2)c(C)c1 [Example F-305],< 3 µM,< 3 µM
Cc1ccc(NC(=O)[C@H]2CCCN(C(=O)CO)[C@@H]2c2nnc(CCCC(C)(C)C)n2C2CC2)c(C)c1 [Example F-308],< 3 µM,< 3 µM
Cc1ccc(NC(=O)[C@H]2CCCN[C@@H]2c2nnc(CCCC(C)(C)C)n2C2CC2)c(C)c1 [Example F-309],< 3 µM,< 3 µM
Cc1ccc(NC(=O)[C@H]2CCCN(C)[C@@H]2c2nnc(CCCC(C)(C)C)n2C2CC2)c(C)c1 [Example F-310],< 3 µM,< 3 µM
COc1cc(C)ccc1CNC(=O)C[C@H](NC(C)=O)c1nnc(CCCC(C)C)n1C1CC1 [Example F-312],> 3 µM,> 3 µM
Cc1ccc(NC(=O)C[C@@H](CCO)c2nnc(CCCC(C)C)n2C2CC2)c(C)c1 [Example F-313],> 3 µM,> 3 µM
Cc1ccc(NC(=O)C[C@H](CCO)c2nnc(CCCC(C)C)n2C2CC2)c(C)c1 [Example F-314],< 3 µM,< 3 µM
CC(=O)N1C[C@H](C(=O)Nc2ccc(C)cc2C)[C@@H](c2nnc(CCCC(C)C)n2C2CC2)C1 [Example F-315],< 3 µM,< 3 µM

Compound,EC50 [1],EC50 [2]
CC(=O)N1C[C@@H](C(=O)Nc2ccc(C)cc2C)[C@H](c2nnc(CCCC(C)C)n2C2CC2)C1 [Example F-316],> 3 µM,> 3 µM
Cc1ccc(NC(=O)CCc2nnc(-c3ccc(C(C)C)cc3)n2C2CC2)c(C)c1 [Example F-320],< 3 µM,< 3 µM
Cc1ccc(NC(=O)[C@H]2CCC(=O)N(C)[C@@H]2c2nnc(CCCC(C)(C)C)n2C2CC2)c(C)c1 [Example F-322],< 3 µM,< 3 µM
COc1cc(C)ccc1CNC(=O)[C@H]1CCC(=O)N(C)[C@@H]1c1nnc(CCCC(C)(C)C)n1C1CC1 [Example F-323],< 3 µM,< 3 µM
Cc1ccc(NC(=O)C[C@@H](CCO)c2nnc(CCCC(C)(C)C)n2C2CC2)c(C)c1 [Example F-326],> 3 µM,> 3 µM
Cc1ccc(NC(=O)C[C@H](CCO)c2nnc(CCCC(C)(C)C)n2C2CC2)c(C)c1 [Example F-327],< 3 µM,< 3 µM
CC(=O)N1C[C@H](C(=O)Nc2ccc(C)cc2C)[C@@H](c2nnc([C@H]3C[C@H](OC(C)C)C3)n2C2CC2)C1 [Example F-334],< 3 µM,< 3 µM
CC(=O)N1C[C@@H](C(=O)Nc2ccc(C)cc2C)[C@H](c2nnc([C@H]3C[C@H](OC(C)C)C3)n2C2CC2)C1 [Example F-335],> 3 µM,> 3 µM
CC(=O)N1C[C@H](C(=O)Nc2ccc(C)cc2C)[C@@H](c2nnc([C@H]3C[C@@H](OC(C)C)C3)n2C2CC2)C1 [Example F-336],> 3 µM,> 3 µM
CC(=O)N1C[C@@H](C(=O)Nc2ccc(C)cc2C)[C@H](c2nnc([C@H]3C[C@@H](OC(C)C)C3)n2C2CC2)C1 [Example F-337],> 3 µM,> 3 µM
CC(=O)N1C[C@H](C(=O)Nc2ccc(C)cc2C)[C@@H](c2nnc(CCCC(C)(C)C)n2C2CC2)C1 [Example F-338],< 3 µM,< 3 µM
CC(=O)N1C[C@@H](C(=O)Nc2ccc(C)cc2C)[C@H](c2nnc(CCCC(C)(C)C)n2C2CC2)C1 [Example F-339],> 3 µM,> 3 µM
Cc1ccc(NC(=O)C[C@@H](C[C@H](O)CO)c2nnc(CCCC(C)C)n2C2CC2)c(C)c1 [Example F-342],> 3 µM,> 3 µM
Cc1ccc(NC(=O)C[C@H](C[C@H](O)CO)c2nnc(CCCC(C)C)n2C2CC2)c(C)c1 [Example F-343],< 3 µM,< 3 µM
CC(=O)N[C@@H](CC(=O)Nc1ccc(C)cc1C)c1nnc(CCCC(C)(C)C)n1C1CC1 [Example F-344],< 3 µM,< 3 µM
Cc1ccc(NC(=O)C[C@@H](c2nnc(CCCC(C)(C)C)n2C2CC2)N(C)C(=O)OCc2ccccc2)c(C)c1 [Example F-352],> 3 µM,> 3 µM
CN[C@@H](CC(=O)Nc1ccc(C)cc1C)c1nnc(CCCC(C)(C)C)n1C1CC1 [Example F-353],< 3 µM,< 3 µM
CC(=O)N(C)[C@@H](CC(=O)Nc1ccc(C)cc1C)c1nnc(CCCC(C)(C)C)n1C1CC1 [Example F-354],< 3 µM,< 3 µM
Cc1ccc(NC(=O)C[C@H](NC(=O)OCc2ccccc2)c2nnc(CCCC(C)(C)C)n2C2CC2)c(C)c1 [Example F-355],< 3 µM,< 3 µM
Cc1ccc(NC(=O)CCc2nnc([C@H]3C[C@H](CC(C)C)C3)n2C2CC2)c(C)c1 [Example F-357],< 3 µM,< 3 µM
Cc1ccc(NC(=O)CCc2nnc([C@H]3C[C@@H](CC(C)C)C3)n2C2CC2)c(C)c1 [Example F-358],< 3 µM,< 3 µM
Cc1ccc(NC(=O)C[C@H](N)c2nnc(CCCC(C)(C)C)n2C2CC2)c(C)c1 [Example F-359],< 3 µM,< 3 µM
Cc1ccc(NC(=O)C[C@@H](CCO)c2nnc([C@H]3C[C@@H](CC(C)C)C3)n2C2CC2)c(C)c1 [Example F-360],> 3 µM,> 3 µM
Cc1ccc(NC(=O)C[C@H](CCO)c2nnc([C@H]3C[C@@H](CC(C)C)C3)n2C2CC2)c(C)c1 [Example F-361],< 3 µM,< 3 µM
CCn1c(CCCC(C)(C)C)nnc1[C@@H]1[C@@H](C(=O)Nc2ccc(C)cc2C)CCN1C(C)=O [Example F-369],< 3 µM,< 3 µM
CCn1c(CCCC(C)(C)C)nnc1[C@@H]1[C@@H](C(=O)NCc2ccc(C)cc2OC)CCN1C(C)=O [Example F-370],< 3 µM,< 3 µM

# — patent US20160137639A1, “TRIAZOLE-ISOXAZOLE COMPOUND AND MEDICAL USE THEREOF” (JAPAN TOBACCO INC., priority 2012, published 2016)
